What all share (assay): NCI-60 cell line screen, 48 h
Test [1] relates to SR leukemia.
In test [2] the test system is MCF7 breast.
Test [3] has as its system HOP-92 NSCLC.
Test [4] relates to HS 578T breast.
Test [5] has as its system TK-10 renal.
The subject of test [6] is K-562 leukemia.
In test [7] the test system is MOLT-4 leukemia.
Test [8] concerns EKVX NSCLC.
The test system of test [9] is HCC-2998 colon.
In test [10] the test system is MALME-3M melanoma.
Test [11] deals with DU-145 prostate.
The subject of test [12] is SN12C renal.
In test [13] the test system is SW-620 colon.
The subject of test [14] is U251 CNS.
Test [15] has as its system SK-OV-3 ovarian.

The values below come from PubChem BioAssay (NCI).

Each structure is given as a SMILES string.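 Test compounds were applied to cells in 96-well plates for 48 hours at 5 doses. The concentration for full growth arrest is given as TGI.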

For the molecule `COCn1cc(C2=C(C)C(=O)C(C)=C(C)C2=O)cn1`, the TGI in [1] is 65.9 µM; in test [2], more than 100 µM; in test [3], 37.5 µM; in [4], more than 100 µM; in [5], more than 100 µM; in test [6] it was 42.6 µM. Moreover, the TGI in test [7] is 42 µM; in test [8], 32.5 µM; in [9], more than 100 µM; in test [10], more than 100 µM; in test [11], more than 100 µM; in [12] it was more than 100 µM. The same molecule yielded a TGI in [13] of more than 100 µM.

Regarding `O=Cc1ccc2ccocc1-2`, the TGI in test [1], in test [2], in [3], in test [4], in test [5] and in test [6] was more than 100 µM throughout. Further, the TGI in [7], in [8], in [9], in test [14], in test [11] and in test [12] was more than 100 µM each time. For the same molecule, the TGI in test [13] and in test [15] was more than 100 µM throughout.

As to `S=C1NC2=C(CSC/C2=C\c2ccc(Cl)cc2)C(c2ccc(Cl)cc2)N1` (configuration not stated), the TGI in test [1] is more than 100 µM; in test [2], more than 100 µM; in [3] it was 88.4 µM; in test [4], more than 100 µM; in test [5], more than 100 µM; in test [6], more than 100 µM. Besides, the TGI is more than 100 µM in test [7]; more than 100 µM in test [8]; 77.6 µM in [9]; more than 100 µM in test [14]; 71.3 µM in test [10]; more than 100 µM in test [11]. The TGI in test [12], in [13] and in [15] was more than 100 µM in each case.

On to `CSC1=NN(C(C)=O)C(C(OC(C)=O)C(OC(C)=O)C(OC(C)=O)C(COC(C)=O)OC(C)=O)S1` (configuration not stated), for which the TGI in [1], in test [2], in [3], in test [4], in test [5] and in test [6] was more than 100 µM throughout. The TGI in test [7], in [8], in test [9], in test [14], in test [10] and in test [11] was more than 100 µM in each case. In addition, the TGI in test [12], in [13] and in test [15] was more than 100 µM each time.

`CC1(C)CC[C@]2(C(=O)O)CC[C@]3(C)C(=CCC4=C5C[C@H](O)[C@H](O)[C@@](C)(CO)[C@@]5(C)CC[C@]43C)[C@@H]2C1`: the TGI in test [1], in test [2], in [3], in [4], in test [5] and in test [6] was more than 100 µM throughout. Moreover, the TGI in [7] is more than 100 µM; in test [8] it was more than 100 µM; in test [9] it was 64.1 µM; in test [14], more than 100 µM; in [10] it was more than 100 µM; in test [11], more than 100 µM. Besides, the TGI in test [12], in test [13] and in [15] was more than 100 µM throughout.

Take `Cn1nnc2c(C(N)=S)ncn2c1=O`: the TGI in test [1], in [2], in test [3], in test [4], in test [5] and in [6] was more than 100 µM in each case. For the same molecule, the TGI in [7], in [8], in test [9], in [14], in test [10] and in [11] was more than 100 µM throughout. The TGI in test [12], in [13] and in test [15] was more than 100 µM throughout.

As to `C=C1CN=C(Nc2ccc(Cl)cc2)S1`, the TGI in test [1], in [2], in test [3], in [4], in test [5] and in test [6] was more than 100 µM in each case. Moreover, the TGI in [7] is more than 10 µM; in [8] it was more than 100 µM; in [9], more than 100 µM; in [14], more than 100 µM; in test [10], more than 100 µM; in test [11], more than 100 µM. Also, the TGI in [12], in [13] and in [15] was more than 100 µM in each case.

With `CN(C)[C@@H]1C(=O)C(C(=O)NCNc2nc3n[nH]nc3c(=O)[nH]2)=C(O)[C@@]2(O)C(=O)C3=C(O)c4c(O)cccc4[C@@](C)(O)[C@H]3C[C@@H]12`, the TGI is more than 19.5 µM in test [1]; more than 100 µM in [2]; more than 30 µM in test [3]; 53.5 µM in test [4]; more than 80.5 µM in test [5]; more than 16.9 µM in test [6]. Also, the TGI in [7] is more than 17.2 µM; in test [8], more than 69.5 µM; in [9], more than 100 µM; in test [14] it was more than 61.3 µM; in test [10] it was 13.1 µM; in test [11], 22.5 µM. In addition, the TGI in [12] is more than 91.2 µM; in test [13], more than 56.2 µM; in test [15], 8.25 µM.

Take `[N-]=[N+]=NC1C(O)C(CO)OC1n1ccc(N)nc1=O` (configuration not stated): the TGI was 296 µM in test [1]; more than 625 µM in test [2]; more than 625 µM in [3]; more than 625 µM in test [4]; more than 625 µM in test [5]; more than 625 µM in [6]. Moreover, the TGI in [7] is more than 174 µM; in test [8], more than 625 µM; in test [9], more than 581 µM; in test [14], more than 625 µM; in test [10], more than 625 µM; in test [11], more than 625 µM. For the same molecule, the TGI was 615 µM in test [12], more than 625 µM in [13] and more than 625 µM in test [15].
